This is an account of results in article PMC12123458, “Unraveling Small Molecule-Mediated Sirtuin 3 Activation at a Distinct Binding Site for Cardioprotective Therapies” (ACS Central Science, 2025).

As a reminder, the Kd is a measure of binding affinity in units of concentration. The AUC(0-inf) is total exposure, with the tail of the curve extrapolated. A higher AUC(0-inf) goes with more exposure. One may read the AUC(0-t) as exposure summed from dosing to a finite time, without extrapolation to infinity. Higher therefore signals more exposure. A word on the Cmax: it is the highest concentration seen after dosing. A word on the Tmax: it is the time at which the peak concentration occurs.

In series [1] the target is T1, SIRT3 (Homo sapiens, UniProt Q9NTG7).
T1 construct: purchased Enzo Life Sciences BML-AK557-0001
T1 sequence (Q9NTG7 1-399): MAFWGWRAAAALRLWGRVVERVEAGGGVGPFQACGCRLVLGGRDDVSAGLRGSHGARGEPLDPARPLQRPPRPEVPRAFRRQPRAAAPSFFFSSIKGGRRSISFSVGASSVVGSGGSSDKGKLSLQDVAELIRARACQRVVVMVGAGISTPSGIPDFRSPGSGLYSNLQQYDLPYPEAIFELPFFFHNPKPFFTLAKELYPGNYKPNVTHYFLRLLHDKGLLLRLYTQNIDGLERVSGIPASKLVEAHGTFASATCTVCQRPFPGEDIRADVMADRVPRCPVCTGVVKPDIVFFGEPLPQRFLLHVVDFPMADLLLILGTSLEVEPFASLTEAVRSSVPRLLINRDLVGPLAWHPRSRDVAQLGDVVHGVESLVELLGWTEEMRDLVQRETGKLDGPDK
Kind of series: SPR binding to immobilized SIRT3. The following applies: 25 °C, PBST pH 7.4. As for the experimental part: (§1) The affinity of SKLB-11A for SIRT1, SIRT2, SIRT3, SIRT5, and SIRT6 was determined using a Reichert 4SPR system (Reichert Technologies, Depew, NY, USA). Proteins at 200 μg/mL were immobilized on a dextran-coated sensor chip (13206066) until reaching ≥12,000 response units (RUs). A dual-flow channel setup was used, reserving one channel for blank controls. SKLB-11A was introduced at varying concentrations for binding and subsequent dissociation kinetic analysis. Data acquisition was at 25 °C utilizing a PBST running buffer (pH 7.4). The equilibrium dissociation constant (K d) was computed from steady-state affinity measurements using TraceDrawer software.
A general note: In SPR one partner is held on a chip, and binding of the other changes the refractive index at the surface.

The target in series [2] is T2, SIRT5 (Homo sapiens, UniProt Q9NXA8).
T2 sequence (Q9NXA8 37-310): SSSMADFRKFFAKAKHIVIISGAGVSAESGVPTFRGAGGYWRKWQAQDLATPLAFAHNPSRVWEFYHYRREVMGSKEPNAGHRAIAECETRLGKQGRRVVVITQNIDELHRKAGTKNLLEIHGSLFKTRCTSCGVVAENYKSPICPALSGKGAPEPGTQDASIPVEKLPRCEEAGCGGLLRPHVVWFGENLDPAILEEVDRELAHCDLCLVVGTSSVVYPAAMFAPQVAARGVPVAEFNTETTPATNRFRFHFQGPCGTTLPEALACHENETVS
Description: SPR binding to SIRT5. As for the experimental part: as §1

Series [3] has as its target T2, SIRT5. Kind of series: Coupled enzymatic assay, succinylated CPS1-K537 substrate. The series is classed as biochemical. The following applies: 100 μM. From the text:
Additionally, we used surface plasmon resonance (SPR) to measure the binding of SKLB-11A to immobilized SIRT3. […] We next evaluated the selectivity of SKLB-11A for different SIRT family members. […] We next examined the functional specificity of SKLB-11A using coupled enzymatic assays with isoform-specific, physiologically relevant substrates: acetylated p53-K381 for SIRT1, acetylated α-tubulin-K25 for SIRT2, acetylated MnSOD-K122 for SIRT3, and succinylated CPS1-K537 for SIRT5 (Supplementary Table S3). […] Using Schrödinger molecular docking simulations, we assessed the binding interactions of SKLB-11A with SIRT isoforms.

Series [4] has as its target T3, SIRT2 (Rattus norvegicus, UniProt Q5RJQ4).
T3 construct: endogenous in cells; host or cells: H9c2
T3 sequence (Q5RJQ4 1-350): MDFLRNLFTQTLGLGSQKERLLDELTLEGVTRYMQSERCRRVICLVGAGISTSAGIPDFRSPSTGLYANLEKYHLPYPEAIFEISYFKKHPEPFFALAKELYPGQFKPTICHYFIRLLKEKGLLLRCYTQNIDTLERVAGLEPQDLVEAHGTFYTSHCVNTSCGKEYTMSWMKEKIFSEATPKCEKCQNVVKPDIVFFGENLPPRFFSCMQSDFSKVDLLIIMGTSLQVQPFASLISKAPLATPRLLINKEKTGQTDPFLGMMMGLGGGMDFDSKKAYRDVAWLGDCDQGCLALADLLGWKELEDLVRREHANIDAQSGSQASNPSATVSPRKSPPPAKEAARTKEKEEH
Kind of series: CETSA of SIRT2 in H9c2 cells. The class given is cell-based.

The target in series [5] is T4, SIRT5 (Rattus norvegicus, UniProt Q68FX9).
T4 construct: endogenous in cells; host or cells: H9c2
T4 sequence (Q68FX9 37-310): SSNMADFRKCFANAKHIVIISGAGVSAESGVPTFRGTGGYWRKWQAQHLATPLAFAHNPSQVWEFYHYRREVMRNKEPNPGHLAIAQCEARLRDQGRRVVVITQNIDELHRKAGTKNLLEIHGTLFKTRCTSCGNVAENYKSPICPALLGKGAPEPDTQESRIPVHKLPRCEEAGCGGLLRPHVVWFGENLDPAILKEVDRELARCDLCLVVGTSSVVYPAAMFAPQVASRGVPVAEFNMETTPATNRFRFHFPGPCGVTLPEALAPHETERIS
Kind of series: CETSA of SIRT5 in H9c2 cells. The series is classed as cell-based.

For series [6], the system named is H9c2 cells. Description: ATP content in Dox-treated H9c2 cells. The series is classed as cell-based. The following applies: 10 μM. The method, then:
ATP concentrations were detected by a firefly luciferin/luciferase-based ATP bioluminescence assay kit (Beyotime, China). The ATP contents were determined as nmol/mg protein by using SYNERGY 4 Microplate Reader (BioTek Instruments).

Series [7] has as its system H9c2 cells. Kind of series: OGD/R injury model in vitro. The class given is cell-based. The following applies: pretreatment for 24 h, 10 μM. As for the experimental part: An in vitro oxygen-glucose deprivation (OGD) injury model was established as described in a previous study. OGD injury was induced by incubating cells in glucose-free DMEM under hypoxic conditions (94% N2, 1% O2, and 5% CO2) for 6 h. Before the hypoxic phase, cells were treated with SKLB-11A (10 μM). The cells were then incubated in normoxic conditions with normal medium at 37 °C for the indicated time of 24 h as reperfusion. Untreated cells were used as controls.

A short description of series [8]: Pharmacokinetics in SD rats. The following applies: for MRT inf: read-out: MRT0–∞; for half-life: read-out: T1/2z (converted). The series is classed as in vivo, Sprague–Dawley (SD) rats. As for the experimental part:
Given the potential of SKLB-11A for treating myocardial injury, we further evaluated its pharmacokinetic profile in Sprague–Dawley (SD) rats (Supplementary Table S5). The pharmacokinetics were assessed following both intravenous injection (1 mg/kg) and intragastric administration (10 mg/kg) of SKLB-11A.

Where [9] appears, read: Sprague-Dawley, rat, in vivo, iv, i.v. 1 mg/kg.
The mark [10] stands for this setting: Sprague-Dawley, rat, in vivo, po, p.o. 10 mg/kg.

Structures are written as SMILES. Where two headings read alike, the source gives them in different places.

Take `COC(=O)c1c(N)n(Cc2ccc(F)cc2)c2nc3ccccc3nc12` [SKLB-11A, Methyl 2-amino-1-(4-fluorobenzyl)-1H-pyrrolo[2,3-b]quinoxaline-3-carboxylate]: the Kd in series [1] came out at 4.7 µM. In series [2], the “binding to SIRT5” value was “no binding”. The “effect on basal SIRT5 desuccinylation activity” value in series [3] was “no statistically significant effects”. The “thermal stability of SIRT2 (CETSA)” value in series [4] is recorded as “little effect on the thermal stability”. Besides, the “thermal stability of SIRT5 (CETSA)” value in series [5] was “little effect on the thermal stability”. Besides, in series [6], the ATP levels entry is “capable of increasing ATP levels”. Further, the OGD/R-induced mitochondrial dysfunction result in series [7] is given as “significantly ameliorated”. For the same molecule, in series [8] (setting [9]), the AUC(0-inf) amounted to 185 ± 20 ng·h/mL, the AUC(0-t) came out at 185 ± 19.9 ng·h/mL, the peak concentration (Cmax) was 255 ± 3.42 ng/mL and the Tmax worked out at 4.8 min. Also, in series [8] (setting [9]), the MRT inf was 43.2 ± 3.6 min and the half-life was 36 ± 3.6 min. In addition, in series [8] (Sprague-Dawley, rat, in vivo, iv, i.v. 1 mg/kg, read-out: CLZ (converted)), the clearance was 90.7 mL/min/kg. Moreover, the Vd in series [8] (Sprague-Dawley, rat, in vivo, iv, i.v. 1 mg/kg, read-out: VZ) was 4.66 ± 0.2 L/kg. Further, in series [8] (setting [10]), the AUC(0-inf) came to 128 ± 29.2 ng·h/mL, the AUC(0-t) is 123 ± 23.6 ng·h/mL, the Cmax amounted to 67.9 ± 13 ng/mL and the Tmax turned out to be 15 min. Moreover, in series [8] (setting [10]), the MRT inf came to 266 ± 107 min and the half-life was 326 ± 156 min. For the same molecule, in series [8] (p.o. 10 mg/kg), the VZ turned out to be 39.99 ± 12.09 L/kg.
